In article PMC5612938, “A multiple biomarker assay for quality assessment of botanical drugs using a versatile microfluidic chip” (Scientific Reports, 2017):
Marks after values point to notes of the source that are not given here.

Legend:
[1] = target: T1, Thrombin (from human plasma) (Homo sapiens, UniProt P00734); assay: on-chip affinity screening, binding degree by LC-MS peak area vs protein-free control (thrombin); settings: for thrombin; [(As − Ac)/As] × 100, sample vs protein-free control, EIC peak area
T1 construct: Thrombin (from human plasma); purchased Sigma-Aldrich; host or cells: human plasma
From the text: In addition to quality assessment, the microfluidic chip can also function as “affinity chromatography” to identify bioactive constituents from botanical drugs in a convenient and efficient manner. After the bioassay, the bound phytochemicals were dissociated from the enzymes and accurately identified by LC-MS. The material used for the chambers in microfluidic system, polydimethylsiloxane (PDMS), is apt to adsorb small molecules nonspecifically, thus a protein-free control was applied to reflect the degree of nonspecific binding of compounds to the chip. Peak areas were obtained from the extracted ion chromatography (EIC) in an ion-trap mass spectrometry (IT-MS), and binding degree (binding degree % = [(As − Ac)/As] × 100, where As and Ac were the peak area in the sample and control, respectively) was calculated to indicate binding specificity. […] All these peaks were unambiguously confirmed via comparisons with chemical standards in terms of retention time and mass spectra (Table 2), and five thrombin inhibitors (danshensu, salvianolic acid B, salvianolic acid C, rosmarinic acid and ginsenoside Rg1) and six ACE inhibitors (astragaloside IV, ononin, formononetin, calycosin, danshensu and salvianolic acid B) were preliminarily identified. […] Enzyme inhibition assays of these hit compounds were then performed to verify the screening results. […] Compounds showing an inhibition rate over 70% were subjected to IC50 measurement.
(§1) MBs (10 mg/mL) were diluted 10 times in PB or Tris-HCl buffer, and 10 μL of the diluted MBs (1 mg/mL) were injected into one channel of the chip using a syringe infusion pump (Harvard Apparatus, USA) and retained by an external magnet. Then, 10 μL of thrombin or ACE solution was added and incubated with MBs for two hours at room temperature to form enzyme-MB complexes. The magnet was manually controlled to move MBs back and forth to enhance the ratio of reaction. Subsequently, MBs were washed twice in assay buffer and magnetically transferred to the other channel through the fluidic bridge, whose opening and closing was controlled by a pneumatic valve. Next, 10 μL of sample solutions of tested drug and 10 μL of enzymatic substrate were sequentially infused to the channel by the pump and incubated with the enzyme. When the enzymatic reaction was finished, the MBs were retained in the channel, and air was injected into the channel from the inlet using a syringe to push all the reacted solution to a 384-well plate. The absorbance of the solution was then monitored at 405 nm (for S-2238) or 340 nm (for FAPGG) using an Infinite F200 spectrophotometer (Tecan, Männedorf, Switzerland). Moreover, after detection, the reaction channel was washed three times by assay buffer to remove unbound constituents. 20 μL of 80% aqueous methanol was then injected and incubated with MBs for one hour to dissociate the bound constituents. The resulting solutions of replicates were combined, evaporated by a centrifugal evaporator, reconstituted in 80% aqueous methanol, centrifuged at 10,000 rpm for 10 min, and analyzed by LC-MS for chemical identification.
An Agilent 1100 HPLC system (Agilent Technologies, Waldbronn, Germany) coupled with an LCQ Deca XP^plus IT-MS (Thermo Finnigan, San Jose, CA, USA) equipped with an electrospray ionization (ESI) interface was employed for structure elucidation of the bounded constituents. […]

[2] = target: T1, Thrombin (from human plasma); assay: on-chip thrombin inhibition assay (S-2238 hydrolysis, absorbance 405 nm); format: biochemical; design: key to IC50 (μM) or inhibition rate: /: No obvious inhibition observed; settings: for thrombin inhibition (in words): at tested concentrations
Method: To enhance the performance of the on-chip assay, experimental parameters such as concentrations of enzymes and substrates, substrate reaction time, and incubation time of samples and enzymes were stepwise optimized. The activity of thrombin was determined by measuring the hydrolysis of chromogenic substrate S-2238 (HD-Phe-Pip-Arg-pNA) at 405 nm. As depicted in Fig. 2a, the absorbance increased rapidly along with the elevated concentrations of thrombin, while it reached a plateau at 0.5 U/mL. […] Moreover, it was clear from Fig. 2d that the maximum inhibitory effect of QSYQ sample (I1 of Table 1 in this assay) on thrombin was observed after 60 min of incubation. Therefore, to achieve favorable response and prevent signal saturation, optimal assay conditions for thrombin were determined to be 0.2 U/mL, 0.31 mM, 30 min and 60 min for the final concentrations of thrombin and S-2238, substrate reaction time and incubation time, respectively. […] In this assay, the concentrations of ACE and FAPGG were finally set at 0.027 U/mL and 0.72 mM, where the background value was lower and the reaction time was relatively shorter (30 min).
The optimized protocol was first applied to assess the quality of 11 batches of QSYQ intermediates (Table 1). Enzyme inhibition (in percentages) was employed as an indicator of drug quality and calculated according to the following equations: thrombin inhibition (%) = [1 − (AQSYQ/Ablank)] × 100; ACE inhibition (%) = [1 − (ΔAQSYQ/ΔAblank)] × 100; where AQSYQ and Ablank were the absorbance of the test sample and the blank sample after the enzymatic reaction (the background value was subtracted), and ΔAQSYQ and ΔAblank were the absorbance decrease between 0 min and 30 min of the samples. A scatter plot was generated to display the inhibition result of thrombin and ACE simultaneously. […] Moreover, artificial abnormal samples I6, I7 and I8, each with one abnormal (pre-extracted) herb, presented relatively lower inhibitions compared with I1.
Thrombin (from human plasma), ACE (from rabbit lung), FAPGG and captopril were purchased from Sigma-Aldrich (St. Louis, USA). S-2238 was obtained from Aglyco (Beijing, China). AEBSF-HCl was purchased from Selleckchem (Houston, USA). Trizma base (Tris) was obtained from Sangon Biotech (Shanghai, China) and dimethyl sulfoxide (DMSO) from J&K Scientific (Beijing, China). All other chemicals were purchased from Sinopharm Chemical (Shanghai, China) unless otherwise indicated. 0.2 M Phosphate buffer (PB, pH 6.5), and 50 mM Tris-HCl buffer (200 mM NaCl, pH 8.3) were prepared as assay buffers for thrombin and ACE, respectively.
as §1, with “20 μL of 80% aqueous methanol was then injected and incubated with MBs for one hour to dissociate the bound constituents. The resulting solutions of replicates were combined, evaporated by a centrifugal evaporator, reconstituted in 80% aqueous methanol, centrifuged at 10,000 rpm for 10 min, and analyzed by LC-MS for chemical identification.” left out

Binding degree (%) [1]	thrombin inhibition (in words) [2]	IC50 ([2]; for thrombin)	Structure (SMILES)	IC50 (μM) or inhibition rate ([2]; for thrombin, symbol / = no obvious inhibition)
67.4^c %	good thrombin inhibitions	92 µM	O=C(/C=C/c1ccc(O)c(O)c1)O[C@H](Cc1ccc(O)c(O)c1)C(=O)O [Rosmarinic acid]	
100^c %	good thrombin inhibitions	180 µM	O=C(/C=C/c1ccc(O)c2oc(-c3ccc(O)c(O)c3)cc12)O[C@H](Cc1ccc(O)c(O)c1)C(=O)O [Salvianolic acid C]	

Structure (SMILES)	Binding degree (%) [1]	thrombin inhibition (in words) [2]	IC50 ([2]; for thrombin)	IC50 (μM) or inhibition rate ([2]; for thrombin, symbol / = no obvious inhibition)
CC(C)=CCC[C@](C)(O[C@@H]1O[C@H](CO)[C@@H](O)[C@H](O)[C@H]1O)[C@H]1CC[C@]2(C)[C@@H]1[C@H](O)C[C@@H]1[C@@]3(C)CC[C@H](O)C(C)(C)[C@@H]3[C@@H](O[C@@H]3O[C@H](CO)[C@@H](O)[C@H](O)[C@H]3O)C[C@]12C [Ginsenoside Rg1]	20.6^c %			/^g
